Test results published in patent publication US20050065595A1, “Implants containing combretastatin a-4” (priority 2001, published 2005).
pIC50: −log10 of the molar value.

What was measured:
[1] = test system: endothelial cells; experiment: Cell culture studies with endothelial cells after CA4 treatment; assay type: cell-based; conditions: following a treatment with CA4
[2] = test system: smooth muscle cells (SMCs); experiment: SMC proliferation inhibition (BrdU-ELISA or cell counting); assay type: cell-based; conditions: for pIC50: 96 h, SMCs, 2000 cells per well, BrdU-ELISA (paclitaxel: counting the number of cells), 24, 48, 72, 96 h
Method: SMCs were plated out in a 96-well plate in a density of 2000 cells per well. After 24 h, different concentrations of the active substance were adjusted (10^−2 to 10^−10M). The proliferation was measured after 24, 48, 72, and 96 h following the addition of the active substance using a BrdU-ELISA or, in the case of paclitaxel, by counting the number of cells.

[3] = test system: tumor cell lines; conditions: cell culture studies, many different tumor cell lines; read-out: IC50, growth of tumor cell lines; cited from earlier work
[4] = test system: alkaline phosphatases; conditions: by alkaline phosphatases; cited from earlier work
[5] = test system: tumors; conditions: various animal models; cited from earlier work
[6] = test system: restenosis; conditions: vascular wall injured by balloon angioplasty and stent placement; cited from earlier work
[7] = test system: neointimal development; conditions: swine; cited from earlier work
[8] = test system: neointimal development; conditions: animal experiments; cited from earlier work

In the case of `COc1ccc(/C=C\c2cc(OC)c(OC)c(OC)c2)cc1O` [CA4, 2-methoxy-5-[(1Z)-2-(3,4,5-trimethoxyphenyl)ethenyl]phenol], the “recovery of endothelial cells versus SMCs after treatment” value [1] was “endothelial cells are able to recover more rapidly than the SMCs”, the pIC50 [2] was ~9.30 and the “effectiveness relative to paclitaxel (SMC proliferation)” value ([2]; CA4 vs paclitaxel) was 10 to 50 times.

In the case of `COc1ccc(/C=C\c2cc(OC)c(OC)c(OC)c2)cc1OP(=O)([O-])[O-].[Na+].[Na+]` [CA4P, disodium combretastatin-A4-3-O-phosphate], the pIC50 [3] is listed as 8.22 to 9.70, the “transformation into CA4 in vivo” value [4] is listed as “very rapidly transformed into CA4” and the “inhibition of tumor growth” value [5] is listed as “markedly inhibit the growth of tumors”.

In the case of `CO[C@H]1C[C@@H]2CC[C@@H](C)[C@@](O)(O2)C(=O)C(=O)N2CCCC[C@H]2C(=O)O[C@H]([C@H](C)C[C@@H]2CC[C@@H](O)[C@H](OC)C2)CC(=O)[C@H](C)/C=C(\C)[C@@H](O)[C@@H](OC)C(=O)[C@H](C)C[C@H](C)/C=C/C=C/C=C/1C` [rapamycin], the “healing of the vascular wall” value [6] is listed as “delayed healing of the vascular wall”.

For `CC(=O)O[C@H]1C(=O)[C@@]2(C)[C@H]([C@H](OC(=O)c3ccccc3)[C@]3(O)C[C@H](OC(=O)[C@H](O)[C@@H](NC(=O)c4ccccc4)c4ccccc4)C(C)=C1C3(C)C)[C@]1(OC(C)=O)CO[C@@H]1C[C@@H]2O` [paclitaxel], the “effect 6 months after implantation of coated stents” value [7] is given as “the effect had been neutralized”, the pIC50 [2] is given as ~8.00 and the “effect on neointimal development” value [8] is given as “inhibit the neointimal development”.
